# Data from publication PMC6751662, “Pharmacological and functional similarities of the human neuropeptide Y system in C. elegans challenges phylogenetic views on the FLP/NPR system” (Cell Communication and Signaling : CCS, 2019).
# Assays:
# [1] = target: T1, NPR-3 (Caenorhabditis elegans, UniProt P90745); experiment: IP accumulation assay, chimeric GαΔ6qi4myr, NPR-3; format: cell-based, C. elegans; details: 1 h, HBSS + 20 mM LiCl, HEK293 receptor + GαΔ6qi4myr, HTRF IP-One
# T1 construct: expressed in transfected cells; host or cells: HEK293
# T1 sequence (P90745 1-376): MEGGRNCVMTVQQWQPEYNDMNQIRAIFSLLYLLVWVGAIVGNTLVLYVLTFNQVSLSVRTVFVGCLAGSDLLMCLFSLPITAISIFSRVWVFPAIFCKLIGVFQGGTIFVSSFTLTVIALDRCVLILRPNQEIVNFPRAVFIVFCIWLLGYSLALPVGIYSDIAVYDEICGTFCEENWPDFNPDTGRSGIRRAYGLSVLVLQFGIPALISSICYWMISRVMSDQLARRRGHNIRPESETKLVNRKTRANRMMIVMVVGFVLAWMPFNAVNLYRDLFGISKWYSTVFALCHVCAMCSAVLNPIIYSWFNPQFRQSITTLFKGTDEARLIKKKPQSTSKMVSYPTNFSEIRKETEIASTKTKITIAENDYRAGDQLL
# Experimental: (§1) For measuring IP accumulation, HEK293 cells grown to 70–80% confluency in 6-well plates were transiently co-transfected using Metafectene Pro (2.5 μl/μg DNA; Biontex) with plasmids containing receptor and/or mock (empty pcDNA3.1) (for endogenous Gq-coupling) using 4 μg total DNA in a ratio of 3:1 following the manufacturer’s instructions. For testing Gα16- and GαΔ6qi4myr-coupling, plasmids encoding the corresponding Gα protein were co-transfected instead of mock. Gα16 is naturally promiscuous and stimulates the phospholipase C (PLC) pathway leading to IP production, while the exchange of the C-terminal four amino acids of Gαq for the corresponding residues of Gαi1 in the chimeric GαΔ6qi4myr confers the ability to couple to Gi/o protein-preferring receptors but still stimulate PLC, thus specifically redirecting downstream cellular signaling. 16 h post transfection, the cells were seeded into white 384-well plates at a density of 20,000 cells/well. Media was removed 24 h later and the cells were incubated with the indicated concentration of peptides for 1 h in HBSS + 20 mM LiCl. IP accumulation was measured with the HTRF-based IP-One Gq kit (Cisbio) on a microplate reader (Tecan Spark).
# (§2) For in vitro activation, data is presented as mean ± SEM of at least three independent experiments conducted in technical triplicate. […] For the C. elegans NPRs, we considered the strongest response elicited by any of the peptides downstream of a particular receptor as the receptor’s maximal signal. This may or may not be the biological maximum that can be reached by the ‘true’ endogenous agonist. For the human receptors, the response to the established endogenous agonist reflected the maximal signal.
# [2] = target: T2, NPR-5b (Caenorhabditis elegans, UniProt Q6F3C9); experiment: IP accumulation assay (Table S8), NPR-5b; format: cell-based, C. elegans; details: 1 h, HBSS + 20 mM LiCl, transfected HEK293, Table S8 (title: chimeric GαΔ6qi4myr), HTRF IP-One, mean of >=3 independent experiments
# T2 sequence (Q6F3C9 1-433): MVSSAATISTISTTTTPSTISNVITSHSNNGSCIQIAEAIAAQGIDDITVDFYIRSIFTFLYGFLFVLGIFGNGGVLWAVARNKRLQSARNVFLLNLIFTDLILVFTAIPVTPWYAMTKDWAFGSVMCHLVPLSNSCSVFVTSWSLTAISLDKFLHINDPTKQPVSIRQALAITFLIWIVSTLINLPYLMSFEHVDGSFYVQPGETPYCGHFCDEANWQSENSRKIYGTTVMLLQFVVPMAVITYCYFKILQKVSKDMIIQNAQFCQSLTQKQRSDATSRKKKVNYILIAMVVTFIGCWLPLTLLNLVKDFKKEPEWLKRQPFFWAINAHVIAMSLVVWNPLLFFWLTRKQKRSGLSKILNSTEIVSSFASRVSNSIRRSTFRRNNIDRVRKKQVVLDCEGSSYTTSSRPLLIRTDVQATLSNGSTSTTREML
# Experimental: as §1, §2
# [3] = target: T3, Y2R (Homo sapiens, UniProt P49146); experiment: cAMP reporter gene assay, Gi/o, Y2R; format: cell-based; details: for cAMP assay (Gi/o), Y2R: 4 h, lower = higher Gi/o activity, transfected HEK293, CRE-luciferase, mean of >=3 independent experiments; for Gi (Gs) [x-fold of forskolin], Y2R, mean: inhibition of cAMP production induced by 1 µM forskolin (set to 1.00), transiently transfected HEK293 cells, mean of at least three independent experiments
# T3 construct: expressed in transfected cells; host or cells: HEK293, transient
# T3 sequence (P49146 1-381): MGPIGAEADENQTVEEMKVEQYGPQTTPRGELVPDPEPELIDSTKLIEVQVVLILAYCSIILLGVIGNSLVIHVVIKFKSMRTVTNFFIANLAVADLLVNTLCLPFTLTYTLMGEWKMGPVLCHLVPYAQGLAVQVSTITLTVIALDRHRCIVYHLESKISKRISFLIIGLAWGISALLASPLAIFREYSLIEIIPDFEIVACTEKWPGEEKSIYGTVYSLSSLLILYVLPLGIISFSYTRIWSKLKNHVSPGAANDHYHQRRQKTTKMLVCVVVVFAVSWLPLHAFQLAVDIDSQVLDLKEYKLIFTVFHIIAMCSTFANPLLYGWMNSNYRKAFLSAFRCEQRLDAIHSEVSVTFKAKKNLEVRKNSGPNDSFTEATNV
# Experimental: Activation of Gs and Gi/o was assessed with a cAMP reporter gene assay. HEK293 cells grown to 70–80% confluency in 6-well plates were transiently co-transfected with vectors encoding the receptor and the cAMP reporter gene plasmid pGL4.29 [luc2P/CRE/Hygro] (Promega; 4 μg total, 1:1 ratio) using Metafectene Pro (3 μl/μg DNA; Biontex) following the manufacturer’s instructions. 16 h post transfection, the cells were seeded into white 384-well plates at a density of 20,000 cells/well. On the next day, the medium was removed and the cells were stimulated with 20 μl of peptide solution (or forskolin as positive control) in serum-free DMEM for 4 h. For measuring Gi/o activity, the peptide solutions additionally contained 1 μM forskolin to elevate cellular cAMP levels. After incubation, the luciferase substrate OneGlo in lysis buffer (Promega) was added and the luminescence was measured in a microplate reader Tecan Spark (Tecan). Data were analyzed with GraphPad Prism 5.03 and are shown as fold of basal or fold of forskolin in case of Gαi/o activity.
# as §2
# [4] = 0.1 µM peptide (Table S8), mean of >=3 independent experiments
# [5] = 10 µM peptide, mean of >=3 independent experiments (Tables S5 and S8)
# [6] = 0.1 µM peptide + 1 µM forskolin (set to 1.00)
# [7] = 10 µM peptide + 1 µM forskolin (set to 1.00)
Substance,"IP accumulation with GαΔ6qi4myr, NPR-3 [1, 4]","IP accumulation with GαΔ6qi4myr, NPR-3 [1, 5]","IP accumulation, NPR-5b ([2]; 0.1 µM peptide)","IP accumulation, NPR-5b ([2]; 10 µM peptide)",also measured
"ASPSFIRF-NH2 [FLP-4-2, C. elegans FMRFamide-like peptide, C-terminally amidated, synthesized by SPPS]",0.92 x-fold of basal,1.05 x-fold of basal,0.90 x-fold of basal,1.98 x-fold of basal,
"AGSDPNFLRF-NH2 [FLP-1-2, C. elegans FMRFamide-like peptide, C-terminally amidated, synthesized by SPPS]",0.96 x-fold of basal,0.93 x-fold of basal,0.99 x-fold of basal,1.80 x-fold of basal,
"NPENDTPFGTMRF-NH2 [FLP-3-4, C. elegans FMRFamide-like peptide, C-terminally amidated, synthesized by SPPS]",0.97 x-fold of basal,0.91 x-fold of basal,1.19 x-fold of basal,8.18 x-fold of basal,
"EASAFGDIIGELKGKGLGGRMRF-NH2 [FLP-27, NPY-like C. elegans FLP with C-terminal RxRF/Ya signature]",,,,,"cAMP assay (Gi/o), Y2R [3, 6]: 0.80 x-fold of forskolin; cAMP assay (Gi/o), Y2R [3, 7]: 0.17 x-fold of forskolin"
"GLGPRPLAF-NH2 [[R8A]FLP-21, R8A control peptide of FLP-21, penultimate arginine exchanged for an alanine]",,,,,"Gi (Gs) [x-fold of forskolin], Y2R, mean ([3]; 0.1 µM peptide): 0.88 x-fold of forskolin; Gi (Gs) [x-fold of forskolin], Y2R, mean ([3]; 10 µM peptide): 0.81 x-fold of forskolin"
RGPSGPLAF-NH2 [[R8A]FLP-15-2],,,,,"Gi (Gs) [x-fold of forskolin], Y2R, mean ([3]; 0.1 µM peptide): 0.86 x-fold of forskolin; Gi (Gs) [x-fold of forskolin], Y2R, mean ([3]; 10 µM peptide): 1.05 x-fold of forskolin"
"APKPKFIRF-NH2 [FLP-5-1, C. elegans FMRFamide-like peptide, C-terminally amidated, synthesized by SPPS]",0.88 x-fold of basal,0.95 x-fold of basal,0.91 x-fold of basal,1.45 x-fold of basal,"IP assay endog. Gαq + GαΔ6qi4myr, NPR-3 ([1]; 0.1 nM peptide (Table S5), mean of >=3 independent experiments): 0.88 x-fold of basal"
"APLEGFEDMSGFLRTIDGIQKPRF-NH2 [FLP-33, NPY-like C. elegans FLP with C-terminal RxRF/Ya signature]",,,,,"cAMP assay (Gi/o), Y2R [3, 6]: 0.89 x-fold of forskolin; cAMP assay (Gi/o), Y2R [3, 7]: 0.76 x-fold of forskolin"
